Where “and” joins values, the source holds several entries; their conditions need not be identical. Equal entries are not always repeated. Structures can show the parent of a compound that is named as a salt. Where two headings read alike, the source gives them in different places. Bounds are passed on as bounds.

The test system of data set [1] is SUDHL5. The experiment in a line: Induction of caspase-3/7 activity (Caspase-Glo 3/7), SUDHL5. The format is cell-based. The settings on record: caspase-3/7 induction, SUDHL5 cells, 3 h treatment, median. The essentials:
(§1)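 DLBCL lines SUDHL5 and SUDHL10 treated with compounds for 3 h at 37 °C; caspase-3/7 activity read by Caspase-Glo 3/7 luminescence. Medium-only background subtracted; EC50 fitted with bottom fixed at 1 and top fixed at the reference compound's maximal induction.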

For data set [2], the system named is SUDHL5. As to the kind of experiment: Anti-proliferative effect (CellTiter-Glo, 72 h), SUDHL5. The format is cell-based. The settings on record: SUDHL5 cells, antiproliferation, 72 h incubation, median, read-out: Antiproli SUDHL5 [M] (median). The essentials:
(§2)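 Cells plated and incubated with compounds for 72 h at 37 °C, with a parallel day 0 reference plate for time-zero signal. Viability read by CellTiter-Glo luminescence after 10 min, measured identically on the day 0 and 72 h plates.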

The test system of data set [3] is SUDHL5. The experiment in a line: Induction of cytotoxicity (CellTiter-Glo, 5 h), SUDHL5.
The test system of data set [4] is SUDHL10. As to the kind of experiment: Induction of caspase-3/7 activity (Caspase-Glo 3/7), SUDHL10. The format is cell-based. The settings on record: caspase-3/7 induction, SUDHL10 cells, 3 h treatment, median. The essentials: as §1
For the next data set, the target named is MCL-1 (Homo sapiens, UniProt Q07820). The experiment in a line: Protein-protein interaction assay MCL-1/Noxa BH3 peptide (MCL-1 assay), TR-FRET. The conditions noted are these: MBP-MCL-1 / Noxa BH3-derived peptide, median. The format is binding. The essentials:
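IC50 came from a 4-parameter fit of the normalized 665/620 nm TR-FRET ratio (anti-MBP Eu-cryptate/streptavidin-XL665). Compounds (0.1 nM–20 μM, duplicates) were preincubated 10 min at 22 °C with 1 nM MBP-MCL-1 in pH 7 Tris/NaCl/KF buffer, then read after 1 h at 22 °C plus overnight at 4 °C.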

A further data set relates to OPM2. As to the kind of experiment: Anti-proliferative effect (CellTiter-Glo, 72 h), OPM2. The conditions noted are these: OPM2 cells, median, read-out: IC50 antiproliferation assay OPM2 [M] (median). The format is cell-based. The gist of the method:
as §2

Data set [5] concerns SUDHL10. As to the kind of experiment: Anti-proliferative effect (CellTiter-Glo, 72 h), SUDHL10. The format is cell-based. The conditions noted are these: SUDHL10 cells, antiproliferation, 72 h incubation, median, read-out: Antiproli SUDHL10 [M] (median). The gist of the method: as §2
The test system of data set [6] is SUDHL10. As to the kind of experiment: Induction of cytotoxicity (CellTiter-Glo, 5 h), SUDHL10.
A further data set concerns A2780. As to the kind of experiment: Anti-proliferative effect (CellTiter-Glo, 72 h), A2780. The format is cell-based. The conditions noted are these: A2780 cells, median, read-out: IC50 antiproliferation assay A2780 [M] (median). The essentials: as §2
[7] abbreviates: Homo sapiens, SU-DHL-5, 5 h, read-out: Cytotox SUDHL5 [M] (median), SUDHL5 cells, cytotoxicity induction, CellTiter-Glo, 5 h incubation, median.
Setting [8] is: Homo sapiens, SU-DHL10, 5 h, read-out: Cytotox SUDHL10 [M] (median), SUDHL10 cells, cytotoxicity induction, CellTiter-Glo, 5 h incubation, median.
The mark [9] stands for this setting: read-out: Cytotox SUDHL10 [M] (median), SUDHL10 cells, cytotoxicity induction, CellTiter-Glo, 5 h incubation, median.
Where [10] appears, read: read-out: Cytotox SUDHL5 [M] (median), SUDHL5 cells, cytotoxicity induction, CellTiter-Glo, 5 h incubation, median.

MCL-1, sequence (Q07820 whole entry): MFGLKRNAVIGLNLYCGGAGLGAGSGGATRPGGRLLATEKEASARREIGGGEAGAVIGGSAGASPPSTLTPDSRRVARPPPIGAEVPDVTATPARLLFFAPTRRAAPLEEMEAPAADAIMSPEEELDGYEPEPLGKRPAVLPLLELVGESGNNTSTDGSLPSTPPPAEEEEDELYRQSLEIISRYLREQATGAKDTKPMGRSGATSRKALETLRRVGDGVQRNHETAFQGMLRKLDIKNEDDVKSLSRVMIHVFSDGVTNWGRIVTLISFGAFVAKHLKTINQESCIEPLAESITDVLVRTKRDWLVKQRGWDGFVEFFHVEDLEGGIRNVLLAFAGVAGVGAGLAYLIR

As for `Cc1nn(C)c2c1-c1cccc3c(CCCOc4cccc5ccccc45)c(C(=O)O)n(c13)CC=CCN2Cc1ccccc1` (racemic) [Example 001, (rac)-(E/Z)-8-benzyl-9,11-dimethyl-1-[3-(1-naphthyloxy)propyl]-4,7,8,9-tetrahydropyrazolo[4′,3′:4,5][1,6]diazecino[3,2,1-hi]indole-2-carboxylic Acid], the concentration for a half-maximal effect (EC50) is more than 33 µM in the data set with SUDHL5 [1] (Homo sapiens, SU-DHL-5, 3 h) and 29.1 µM with SUDHL10 [4] (Homo sapiens, SU-DHL10, 3 h). For the same compound, the IC50 is more than 3.3e-05 M in the data set with SUDHL5 [2] (Homo sapiens, SU-DHL-5, 72 h); 2.61e-05 M with SUDHL5 [3] (setting [7]); 1.01 µM at MCL-1; more than 3.3e-05 M in the data set on OPM2 (Homo sapiens, OPM-2, 72 h); 9.57e-06 M in the data set on SUDHL10 [5] (Homo sapiens, SU-DHL10, 72 h); more than 3.3e-05 M in the data set with SUDHL10 [6] (setting [8]).
For the compound `Cc1nn(C)c2c1-c1cccc3c(CCCOc4cccc5ccccc45)c(C(=O)O)n(c13)CCCN(C)C2` (racemic) [Example 1-30, (rac)-7,9,11-trimethyl-1-[3-(naphthalen-1-yloxy)propyl]-4,5,6,7,8,9-hexahydropyrazolo[3′,4′:7,8][1,5]diazecino[9,10,1-hi]indole-2-carboxylic Acid], the EC50 in the data set with SUDHL5 [1] (Homo sapiens, SU-DHL-5, 3 h) amounted to 15.6 µM; in the data set on SUDHL10 [4] (Homo sapiens, SU-DHL10, 3 h) it was 30.1 µM. Moreover, the IC50 with SUDHL5 [2] (Homo sapiens, SU-DHL-5, 72 h) was 1.04e-05 M; with SUDHL5 [3] (setting [7]), more than 3.3e-05 M; against MCL-1, 0.00652 µM; in the data set on OPM2 (Homo sapiens, OPM-2, 72 h) it was 2.28e-05 M; with SUDHL10 [5] (Homo sapiens, SU-DHL10, 72 h), 1.36e-05 M; in the data set on SUDHL10 [6] (setting [8]), more than 3.3e-05 M.
For `Cn1nc(COc2ccccc2)c2c1COCC=CCn1c(C(=O)O)c(CCCOc3cccc4ccccc34)c3cccc-2c31` (racemic) [Example 1-76, (rac)-(E/Z)-1-methyl-7-[3-(naphthalen-1-yloxy)propyl]-3-(phenoxymethyl)-1,10,13,15-tetrahydropyrazolo[4′,3′:9,10][1,6]oxazacycloundecino[8,7,6-hi]indole-8-carboxylic Acid], the EC50 in the data set on SUDHL5 [1] (Homo sapiens, SU-DHL-5, 3 h) is more than 33 µM; in the data set with SUDHL10 [4] (Homo sapiens, SU-DHL10, 3 h), more than 33 µM. Also, the IC50 with SUDHL5 [2] (Homo sapiens, SU-DHL-5, 72 h) was 2.1e-05 M; with SUDHL5 [3] (setting [7]) it was more than 3.3e-05 M; in the data set on OPM2 (Homo sapiens, OPM-2, 72 h), more than 3.3e-05 M; in the data set on SUDHL10 [5] (Homo sapiens, SU-DHL10, 72 h), 1.13e-05 M; in the data set on SUDHL10 [6] (setting [8]), more than 3.3e-05 M.
Take `CN1CCCn2c(C(=O)O)c(CCCOc3cccc4ccccc34)c3cccc(c32)-c2c(COc3ccccc3)nn(C)c2C1` (racemic) [Example 1-81, (rac)-7,9-dimethyl-1-[3-(naphthalen-1-yloxy)propyl]-1-(phenoxymethyl)-4,5,6,7,8,9-hexahydropyrazolo[3′,4′:7,8][1,5]diazecino[9,10,1-hi]indole-2-carboxylic Acid]: the concentration for a half-maximal effect (EC50) in the data set on SUDHL5 [1] (Homo sapiens, SU-DHL-5, 3 h) is more than 33 µM; with SUDHL10 [4] (Homo sapiens, SU-DHL10, 3 h) it was more than 33 µM. For the same compound, the IC50 with SUDHL5 [2] (Homo sapiens, SU-DHL-5, 72 h) is more than 3.3e-05 M; in the data set with SUDHL5 [3] (setting [7]), more than 3.3e-05 M; against MCL-1, 0.0994 µM; with OPM2 (Homo sapiens, OPM-2, 72 h), more than 3.3e-05 M; with SUDHL10 [5] (Homo sapiens, SU-DHL10, 72 h), 2.78e-05 M; in the data set on SUDHL10 [6] (setting [8]), more than 3.3e-05 M.
Regarding `Cc1cc(OCCCc2c(C(=O)O)n3c4c(cccc24)-c2c(COc4ccccc4)nn(C)c2CN(C)CCC3)cc(C)c1Cl` (racemic) [Example 1-84, (rac)-1-[3-(4-chloro-3,5-dimethylphenoxy)propyl]-7,9-dimethyl-11-(phenoxymethyl)-4,5,6,7,8,9-hexahydropyrazolo[3′,4′:7,8][1,5]diazecino[9,10,1-hi]indole-2-carboxylic Acid], the EC50 in the data set with SUDHL5 [1] (Homo sapiens, SU-DHL-5, 3 h) was more than 33 µM; in the data set with SUDHL10 [4] (Homo sapiens, SU-DHL10, 3 h), more than 33 µM. In addition, the IC50 in the data set with SUDHL5 [2] (Homo sapiens, SU-DHL-5, 72 h) is 1.18e-05 M; in the data set on SUDHL5 [3] (setting [7]), more than 3.3e-05 M; on MCL-1, 0.11 µM; in the data set on OPM2 (Homo sapiens, OPM-2, 72 h) it was more than 3.3e-05 M; in the data set with SUDHL10 [5] (Homo sapiens, SU-DHL10, 72 h) it was 8.37e-06 M; with SUDHL10 [6] (setting [8]) it was more than 3.3e-05 M.
In the case of `Cc1nn(C)c2c1-c1cccc3c(CCCOc4cccc5ccccc45)c(C(=O)O)n(c13)CCCN(c1ccccc1)C2` (racemic) [Example 1-97, (rac)-9,11-Dimethyl-1-[3-(1-naphthyloxy)propyl]-7-phenyl-4,5,6,7,8,9-hexahydropyrazolo[3′4′:78][1,5]diazecino[9,10,1-hi]indole-2-carboxylic Acid], the EC50 in the data set with SUDHL5 [1] (Homo sapiens, SU-DHL-5, 3 h) is more than 30 µM; in the data set on SUDHL10 [4] (Homo sapiens, SU-DHL10, 3 h) it was more than 30 µM. Further, the IC50 with SUDHL5 [2] (Homo sapiens, SU-DHL-5, 72 h) was 1.18e-05 M; with SUDHL5 [3] (setting [7]), more than 3e-05 M; on MCL-1 it was 0.175 µM; with OPM2 (Homo sapiens, OPM-2, 72 h), 1.43e-05 M; in the data set on SUDHL10 [5] (Homo sapiens, SU-DHL10, 72 h), 7.07e-06 M; in the data set with SUDHL10 [6] (setting [8]), more than 3e-05 M.
As to `CC(C)OCc1nn(C)c2c1-c1cccc3c(CCCOc4cccc5ccccc45)c(C(=O)O)n(c13)CCCCN(C)C2` (single isomer, unassigned) [Example 1-75, 1,14-dimethyl-7-[3-(naphthalen-1-yloxy)propyl]-3-[(propan-2-yloxy)methyl]-10,11,12,13,14,15-hexahydro-1H-pyrazolo[3′,4′:8,9][1,6]diazacycloundecino[10,11,1-hi]indole-8-carboxylic Acid], the EC50 with SUDHL5 [1] is 30.5 µM and > 33 µM; in the data set on SUDHL10 [4], more than 33 µM. The IC50 was 1.56e-05 M with SUDHL5 [2]; 0.00593 µM at MCL-1; 9.37e-06 M in the data set with OPM2; 1.12e-05 M in the data set on SUDHL10 [5]; 1.39e-05 M in the data set on A2780; 1.9e-05 M and > 3.3e-05 M with SUDHL10 [6] (setting [9]).
Consider `Cn1nc(COc2ccccc2)c2c1COCC=CCn1c(C(=O)O)c(CCCOc3cccc4ccccc34)c3cccc-2c31` (single isomer, unassigned) [Example 1-77, (E/Z)-1-methyl-7-[3-(naphthalen-1-yloxy)propyl]-3-(phenoxymethyl)-1,10,13,15-tetrahydropyrazolo[4′,3′:9,10][1,6]oxazacycloundecino[8,7,6-hi]indole-8-carboxylic Acid], for which the EC50 in the data set on SUDHL5 [1] (Homo sapiens, SU-DHL-5, 3 h) is more than 33 µM; with SUDHL10 [4] (Homo sapiens, SU-DHL10, 3 h), more than 33 µM. Further, the IC50 is 2.96e-05 M with SUDHL5 [2] (Homo sapiens, SU-DHL-5, 72 h); more than 3.3e-05 M in the data set on SUDHL5 [3] (setting [7]); 0.188 µM against MCL-1; more than 3.3e-05 M in the data set with OPM2 (Homo sapiens, OPM-2, 72 h); 1.52e-05 M in the data set with SUDHL10 [5] (Homo sapiens, SU-DHL10, 72 h); more than 3.3e-05 M in the data set on SUDHL10 [6] (setting [8]).
Turning to `COCc1nn(C)c2c1-c1cccc3c(CCCOc4cccc5ccccc45)c(C(=O)O)n(c13)CCCCOC2` (single isomer, unassigned; enantiomer 2) [Example 160, 3-(methoxymethyl)-1-methyl-7-[3-(naphthalen-1-yloxy)propyl]-1,10,11,12,13,15-hexahydropyrazolo[4′,3′:9,10][1,6]oxazacycloundecino[8,7,6-hi]indole-8-carboxylic acid-N-ethylethanamine Salt (Enantiomer 2)], the EC50 was 17.9 µM in the data set with SUDHL5 [1] and more than 33 µM in the data set with SUDHL10 [4]. Further, the IC50 in the data set on SUDHL5 [3] (setting [10]) is 2.05e-05 M; against MCL-1, 0.0208 µM; in the data set on OPM2, more than 3.3e-05 M; in the data set with SUDHL10 [5], 1.49e-05 M; in the data set with A2780, more than 3.3e-05 M; with SUDHL10 [6] (setting [9]), more than 3.3e-05 M.
Take `CCOCc1nn(C)c2c1-c1cccc3c(CCCOc4cccc5c4CCCC5)c(C(=O)O)n(c13)CCCCOC2` (single isomer, unassigned; enantiomer 2) [Example 172, 3-(ethoxymethyl)-1-methyl-7-[3-(5,6,7,8-tetrahydronaphthalen-1-yloxy)propyl]-1,10,11,12,13,15-hexahydropyrazolo[4′,3′:9,10][1,6]oxazacycloundecino[8,7,6-hi]indole-8-carboxylic Acid (Enantiomer 2)]: the EC50 in the data set with SUDHL5 [1] and in the data set on SUDHL10 [4] was more than 33 µM throughout. Besides, the IC50 was more than 3.3e-05 M in the data set on SUDHL5 [3] (setting [10]); 0.144 µM against MCL-1; more than 3.3e-05 M with OPM2; 1.53e-05 M in the data set with SUDHL10 [5]; more than 3.3e-05 M with A2780; more than 3.3e-05 M in the data set with SUDHL10 [6] (setting [9]).

The values above are taken from patent US10981932B2, “Macrocyclic indole derivatives” (Bayer Aktiengesellschaft, priority 2016, dated 2021).
